Patent US10759781B2, “Substituted guanidine derivatives” (UBE INDUSTRIES, LTD., priority 2015, dated 2020)

What follows are compounds tested against T1, Human VAP-1 enzyme (Homo sapiens, UniProt Q16853) (assay: Human VAP-1 enzyme inhibition test). Conditions: 1 h; compound 30 nM; 14C-benzylamine 100 μM; read-out: inhibition ratio (human VAP-1 enzyme).
T1 construct: purchased R&D Systems, Inc
T1 sequence (Q16853 1-763): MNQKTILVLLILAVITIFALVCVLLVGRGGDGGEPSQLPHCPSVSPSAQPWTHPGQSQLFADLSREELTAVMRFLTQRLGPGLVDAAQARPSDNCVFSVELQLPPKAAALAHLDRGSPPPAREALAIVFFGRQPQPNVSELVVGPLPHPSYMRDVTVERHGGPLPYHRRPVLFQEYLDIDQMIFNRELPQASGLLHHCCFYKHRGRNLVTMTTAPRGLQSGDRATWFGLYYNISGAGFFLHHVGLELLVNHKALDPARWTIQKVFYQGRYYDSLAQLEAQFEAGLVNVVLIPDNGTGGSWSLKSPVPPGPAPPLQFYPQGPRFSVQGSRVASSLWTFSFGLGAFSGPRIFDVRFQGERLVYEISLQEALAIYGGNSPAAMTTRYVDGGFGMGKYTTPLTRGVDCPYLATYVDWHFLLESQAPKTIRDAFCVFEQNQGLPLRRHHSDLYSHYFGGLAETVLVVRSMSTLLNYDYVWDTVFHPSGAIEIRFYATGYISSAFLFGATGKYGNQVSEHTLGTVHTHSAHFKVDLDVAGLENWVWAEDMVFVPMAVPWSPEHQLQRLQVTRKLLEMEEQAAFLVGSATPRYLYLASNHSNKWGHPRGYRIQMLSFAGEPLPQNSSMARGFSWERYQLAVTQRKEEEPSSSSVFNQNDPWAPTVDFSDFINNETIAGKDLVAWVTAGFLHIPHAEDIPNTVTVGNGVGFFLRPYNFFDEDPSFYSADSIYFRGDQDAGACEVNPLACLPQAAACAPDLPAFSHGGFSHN
Assay type: biochemical
Protocol: Human VAP-1 enzyme inhibition test
This test was conducted by modifying the method of P. H. Yu et al. (Diabetologia 40 1243 (1997)). Human VAP-1 enzyme (R&D Systems, Inc.) was pre-incubated in a 96-well plate with the compound dissolved in dimethylsulfoxide at room temperature for 20 minutes. Next, in a solution to the final volume of 200 μL, the enzyme reaction solution was incubated with ^14C-benzylamine (final concentration 100 μM) at 37° C. for 1 hour. The reaction was terminated by the addition of 100 μL of 2 M citric acid solution to the reaction solution. The oxidative product was extracted using a toluene/ethyl acetate mixture and the radioactivity was measured with a liquid scintillation counter. The inhibition ratio of the compound was calculated using the following equation. Inhibition ratio={1−[VAP-1 enzyme activity after treatment with the compound]/[VAP-1 enzyme activity in the presence of dimethylsulfoxide alone without the compound]}×100

Row | Structure (SMILES) | inhibition at 0.03 µM [%]
1 | N=C(N)NC(=O)OCc1cccc(-c2cnc(N3CC(=NOCCCC(=O)O)C3)nc2)c1F [Example 115, 4-[({1-[5-(3-{[(Carbamimidoylcarbamoyl)oxy]methyl}-2-fluorophenyl)pyrimidin-2-yl]azetidin-3-ylidene}amino)oxy]butanoic acid] | ≥ 50
2 | CNC(=O)CCCON=C1CN(c2ncc(-c3cccc(COC(=O)NC(=N)N)c3F)cn2)C1 [Example 116, 2-Fluoro-3-[2-(3-{[4-(methylamino)-4-oxobutoxy]imino}azetidin-1-yl)pyrimidin-5-yl]benzyl carbamimidoylcarbamate] | ≥ 50
3 | CN(C)CCON=C1CN(c2ncc(-c3cccc(COC(=O)NC(=N)N)c3F)cn2)C1 [Example 117, 3-[2-(3-{[2-(Dimethylamino)ethoxy]imino}azetidin-1-yl)pyrimidin-5-yl]-2-fluorobenzyl carbamimidoylcarbamate] | ≥ 50
4 | CN(CCON=C1CN(c2ncc(-c3cccc(COC(=O)NC(=N)N)c3F)cn2)C1)Cc1ccccc1 [Example 118, 3-{2-[3-({2-[Benzyl(methyl)amino]ethoxy}imino)azetidin-1-yl]pyrimidin-5-yl}-2-fluorobenzyl carbamimidoylcarbamate] | ≥ 50
5 | CC(=O)NCC(CO)CON=C1CN(c2ncc(-c3cccc(COC(=O)NC(=N)N)c3F)cn2)C1 (centres unmarked) [Example 120, 3-[2-(3-{[3-Acetamido-2-(hydroxymethyl)propoxy]imino}azetidin-1-yl)pyrimidin-5-yl]-2-fluorobenzyl carbamimidoylcarbamate] | ≥ 50
6 | CN(C)CC(CO)CON=C1CN(c2ncc(-c3cccc(COC(=O)NC(=N)N)c3F)cn2)C1 (centres unmarked) [Example 122, 3-[2-(3-{[3-(Dimethylamino)-2-(hydroxymethyl)propoxy]imino}azetidin-1-yl)pyrimidin-5-yl]-2-fluorobenzyl carbamimidoylcarbamate] | ≥ 50
7 | COC(CNC(C)=O)CON=C1CN(c2ncc(-c3cccc(COC(=O)NC(=N)N)c3F)cn2)C1 (centres unmarked) [Example 123, 3-(2-{3-[(3-Acetamido-2-methoxypropoxy)imino]azetidin-1-yl}pyrimidin-5-yl)-2-fluorobenzyl carbamimidoylcarbamate] | ≥ 50
8 | N=C(N)NC(=O)OCc1cccc(-c2cnc(N3CC(=NOCCN4CCCCC4)C3)nc2)c1F [Example 124, 2-Fluoro-3-[2-(3-{[2-(piperidin-1-yl)ethoxy]imino}azetidin-1-yl)pyrimidin-5-yl]benzyl carbamimidoylcarbamate] | ≥ 50
9 | N=C(N)NC(=O)OCc1cccc(-c2cnc(N3CC(=NOCCN4CCOCC4)C3)nc2)c1F [Example 125, 2-Fluoro-3-(2-{3-[(2-morpholinoethoxy)imino]azetidin-1-yl}pyrimidin-5-yl)benzyl carbamimidoylcarbamate] | ≥ 50
10 | N=C(N)NC(=O)OCc1cccc(-c2cnc(N3CC(=NOCCN4CCC4)C3)nc2)c1F [Example 126, 3-[2-(3-{[2-(Azetidin-1-yl)ethoxy]imino}azetidin-1-yl)pyrimidin-5-yl]-2-fluorobenzyl carbamimidoylcarbamate] | ≥ 50
11 | N=C(N)NC(=O)OCc1cccc(-c2cnc(N3CC(=NOCCN4CC(F)C4)C3)nc2)c1F [Example 128, 2-Fluoro-3-[2-(3-{[2-(3-fluoroazetidin-1-yl)ethoxy]imino}azetidin-1-yl)pyrimidin-5-yl]benzyl carbamimidoylcarbamate] | ≥ 50
12 | CN1CCOC(CON=C2CN(c3ncc(-c4cccc(COC(=O)NC(=N)N)c4F)cn3)C2)C1 (centres unmarked) [Example 130, 2-Fluoro-3-[2-(3-{[(4-methylmorpholin-2-yl)methoxy]imino}azetidin-1-yl)pyrimidin-5-yl]benzyl carbamimidoylcarbamate] | ≥ 50
13 | CC(=O)N1CCOC(CON=C2CN(c3ncc(-c4cccc(COC(=O)NC(=N)N)c4F)cn3)C2)C1 (centres unmarked) [Example 131, 3-[2-(3-{[(4-Acetylmorpholin-2-yl)methoxy]imino}azetidin-1-yl)pyrimidin-5-yl]-2-fluorobenzyl carbamimidoylcarbamate] | ≥ 50
14 | N=C(N)NC(=O)OCc1cccc(-c2cnc(N3CC(=NOCC4CCC(=O)O4)C3)nc2)c1F (centres unmarked) [Example 132, 2-Fluoro-3-[2-(3-{[(5-oxotetrahydrofuran-2-yl)methoxy]imino}azetidin-1-yl)pyrimidin-5-yl]benzyl carbamimidoylcarbamate] | ≥ 50
15 | N=C(N)NC(=O)OCc1cccc(-c2cnc(N3CC(=NOCc4ccccc4)C3)nc2)c1F [Example 135, 3-(2-{3-[(Benzyloxy)imino]azetidin-1-yl}pyrimidin-5-yl)-2-fluorobenzyl carbamimidoylcarbamate] | ≥ 50
16 | COc1ccc(CON=C2CN(c3ncc(-c4cccc(COC(=O)NC(=N)N)c4F)cn3)C2)cc1 [Example 136, 2-Fluoro-3-[2-(3-{[(4-methoxybenzyl)oxy]imino}azetidin-1-yl)pyrimidin-5-yl]benzyl carbamimidoylcarbamate] | ≥ 50
17 | CN1CC(ON=C2CN(c3ncc(-c4cccc(COC(=O)NC(=N)N)c4F)cn3)C2)C1 [Example 137, 2-Fluoro-3-[2-(3-{[(1-methylazetidin-3-yl)oxy]imino}azetidin-1-yl)pyrimidin-5-yl]benzyl carbamimidoylcarbamate] | ≥ 50
18 | CC(=O)N1CC(ON=C2CN(c3ncc(-c4cccc(COC(=O)NC(=N)N)c4F)cn3)C2)C1 [Example 138, 3-[2-(3-{[(1-Acetylazetidin-3-yl)oxy]imino}azetidin-1-yl)pyrimidin-5-yl]-2-fluorobenzyl carbamimidoylcarbamate] | ≥ 50
19 | N=C(N)NC(=O)OCc1cccc(-c2cnc(N3CC(=NOC4CN(Cc5ccccc5)C4)C3)nc2)c1F [Example 139, 3-[2-(3-{[(1-Benzylazetidin-3-yl)oxy]imino}azetidin-1-yl)pyrimidin-5-yl]-2-fluorobenzyl carbamimidoylcarbamate] | ≥ 50
20 | N=C(N)NC(=O)OCc1cccc(-c2cnc(N3CC(=NOC4CN(CC(F)(F)F)C4)C3)nc2)c1F [Example 140, 2-Fluoro-3-{2-[3-({[1-(2,2,2-trifluoroethyl)azetidin-3-yl]oxy}imino)azetidin-1-yl]pyrimidin-5-yl}benzyl carbamimidoylcarbamate] | ≥ 50
21 | CCN1CC(ON=C2CN(c3ncc(-c4cccc(COC(=O)NC(=N)N)c4F)cn3)C2)C1 [Example 142, 3-[2-(3-{[(1-Ethylazetidin-3-yl)oxy]imino}azetidin-1-yl)pyrimidin-5-yl]-2-fluorobenzyl carbamimidoylcarbamate] | ≥ 50
22 | COC(=O)N1CC(ON=C2CN(c3ncc(-c4cccc(COC(=O)NC(=N)N)c4F)cn3)C2)C1 [Example 143, Methyl 3-[({1-[5-(3-{[(carbamimidoylcarbamoyl)oxy]methyl}-2-fluorophenyl)pyrimidin-2-yl]azetidin-3-ylidene}amino)oxy]azetidin-1-carboxylate] | ≥ 50
23 | N=C(N)NC(=O)OCc1cccc(-c2cnc(N3CC(=NOC4CN(CCO)C4)C3)nc2)c1F [Example 146, 2-Fluoro-3-{2-[3-({[1-(2-hydroxyethyl)azetidin-3-yl]oxy}imino)azetidin-1-yl]pyrimidin-5-yl}benzyl carbamimidoylcarbamate] | ≥ 50
